Patent US9226912B2, “Acetyltanshinone IIA (ATA) as anticancer agent” (Nanyang Technological University, priority 2011, dated 2016)

Tests used:
[1] = tested on: BT474; experiment: Growth inhibition at 72 h by MTT assay
[2] = tested on: MDA-MB-231; experiment: Growth inhibition at 72 h by MTT assay
[3] = tested on: HeLa cells; experiment: ATA-induced cell death by cell counting under a microscope; format: cell-based; conditions: 10 μM or 20 μM ATA, 24 h or 48 h, YFP-Bcl-2 transfected HeLa
Procedure: HeLa cells were treated with 10 μM ATA for 12, 24, 36, and 48 h. The β-tubulin protein was probed as a loading control. […] HeLa cells were pre-treated with 2 μM pan-caspase inhibitor (z-VAD-fmk) for 2 h before ATA addition. Then 10 μM or 20 μM ATA were added. After 24 h and 48 h treatment, the number of died cells was counted under a microscope. (* p<0.01, compared with cells treated with ATA only). Control: cells without any treatment.
Overexpression of Bcl-2 inhibited ATA-induced cell death. HeLa cells transfected with either yellow fluorescent protein (YFP) (vector control) or YFP-Bcl-2 (Bcl-2) were treated with ATA at 10 or 20 μM. The percentage of cell death from YFP-positive cells was determined by cell counting under a fluorescence microscope. (* p<0.01, compared with vector control groups).
The inventors of the present invention have shown for the first time that ATA can activate the apoptotic pathway in cancer cells. […]
HeLa cells transfected with YFP-Bcl-2 or YFP only were treated with 10 μM or 20 μM ATA. After 24 h or 48 h treatment, the percentage of cell death in each sample was calculated by counting the numbers of fluorescence-positive cells either live (attached with a normal cell morphology) or dead (detached with a shrunk morphology) under a fluorescence microscope. […]

[4] = tested on: MDA-MB-435 cells; experiment: cells; format: cell-based; conditions: Homo sapiens, MDA-MB-435, 24 h, read-out: cell viability
Procedure: (A) ROS generation in various cancer cell lines was detected using H2DCFDA after 10 μM ATA treatment for 2 h. The number indicates the fold of increase in ROS level compared to control. (B) Antioxidant prevented ATA-induced MDA-MB-435 cell death. Various antioxidants at the indicated concentration were tested for their protective effects against ATA-induced MDA-MB-435 cell death. Cells were first pre-treated with each antioxidant for 1 h and then ATA was added into the culture medium in the presence of antioxidants. The cell viability was measured by sulforhodamine B (SRB) colorimetric assay for cytotoxicity determination (* p<0.01).
(A) PG prevented ATA-induced cell death. Three concentrations of PG were tested for their protective effects on ATA-induced cell death. The cell viability was measured by SRB assay. (* p<0.01). (B) PG protected ROS generation caused by ATA treatment. […] All the experiments were performed at least three times. The results presented in this figure are the average of three experiments. […]
Since the generation of ROS was detected in all six examined cell lines and it occurred only 2 h after ATA addition, which was at least 4-6 h ahead of Bax translocation, it was speculated that ATA-mediated ROS generation might be the cause for cell death. […] The percentage of cell death after 24 h of ATA treatment was measured using SRB cytotoxicity assay.

[5] = tested on: SK-BR-3; experiment: IC50 and LC50 of ATA at 48 h; format: cell-based; conditions: Homo sapiens, SK-BR-3 breast cancer
[6] = tested on: xenografted tumors derived from human melanoma MDA-MB-435 cells; experiment: Xenografted tumors in nude mice; format: in vivo; conditions: 30 mg/kg, 3×/week intraperitoneal, four weeks
Procedure: ATA (▴ 30 mg/kg), etoposide (▪ ETS, 20 mg/kg) and vehicle control (◯) were injected into mice 3×/week via intraperitoneal injection. Average tumor size (A) and mice body weight (B) were measured from five mice.
The anti-tumour effect of ATA was examined in nude mice (FIG. 13 and FIG. 14) carrying solid tumours generated by injecting human melanoma MDA-MB-435 cells into the mice subcutaneously. The tumour size and mouse body weight were monitored over a period of four weeks.

[7] = tested on: GREB1 mRNA in MCF-7 cells; experiment: Real-time PCR of GREB1 mRNA level; conditions: for GREB1 mRNA level, fold of the control: 100 pM estrogen plus 6 μM ATA, charcoal-stripped medium
Procedure: In order to do so, the mRNA level of a non-ER regulated gene GAPDH was measured and used as a reference. MCF-7 cells cultured in the charcoal-stripped medium were used as a control.

[8] = tested on: MCF-7/HER2 cells; experiment: Growth inhibition of HER2 over-expressing cells at 72 h; format: cell-based
Description: The efficacy of ATA on MCF-7 cells with over-expressed HER2 protein was investigated.

[9] = tested on: HL-60; experiment: IC50 and LC50 of ATA at 48 h; format: cell-based; conditions: Homo sapiens, HL-60 leukemia
[10] = tested on: MCF-10A; experiment: IC50 and LC50 of ATA at 48 h; format: cell-based; conditions: Homo sapiens, MCF-10A non-cancer breast cell line
[11] = IC50 and LC50 of ATA at 48 h; format: cell-based; conditions: human, MCF-10A cells (non-cancer breast cell line), MCF-10A non-cancer breast cell line
[12] = tested on: Four types of cancer cells; experiment: ATA versus TIIA, cell viability by MTT assay after 48 h; format: cell-based; conditions: 10 μM or 20 μM
Procedure: Four types of cancer cells were treated with ATA or TIIA at either 10 μM or 20 μM and the cell viability was measured by MTT assay after 48 h of compound addition. * p<0.01.

CC(=O)Oc1c(OC(C)=O)c2c(C)coc2c2ccc3c(c12)CCCC3(C)C [ATA, 1,6,6-trimethyl-8,9-dihydro-10,11-diacetoxyl-7H-naphtho[1,2-g][1]benzofuran]
IC50 ratio of tamoxifen/ATA ([1]; BT474 (ER+/HER2+), 72 h): 6.2
IC50 ([1]; Homo sapiens, BT-474, 72 h): 1000 nM
inhibition at 3.13 µM ([1]; Homo sapiens, BT-474, 72 h, read-out: growth inhibition rate): 146%
IC50 ([2]; Homo sapiens, MDA-MB-231, 72 h): 7.98 ± 0.18 µM
inhibition at 3.13 µM ([2]; Homo sapiens, MDA-MB-231, 72 h, read-out: growth inhibition rate): 32.3%
IC50 value at 72 h lower in ER-positive than ER-negative cells ([2]; MCF-7 and T47D versus MDA-MB-231): 5.4-5.7 fold
IC50 ratio of tamoxifen/ATA ([2]; MDA-MB-231 (ER−), 72 h): 2.7
Ratio of ER−/ER+ 231/MCF-7 ([2]; ratio of IC50 at 72 h, MDA-MB-231 over MCF-7): 5.4
Ratio of ER−/ER+ 231/T47D ([2]; ratio of IC50 at 72 h, MDA-MB-231 over T47D): 5.7
percentage of cell death in Bcl-2 over expressing cells versus normal Bcl-2 level [3]: significantly lower
viability at 5 µM [4]: 35%
IC50 [5]: 290 nM
CC50 ([5]; kill 50% of the cells): 5.1 ± 1.92 µM
average body weight versus control mice [6]: did not significantly decrease
tumour growth [6]: significant inhibition on tumour growth
GREB1 mRNA level, fold of the control ([7]; 4 h): 6.4 fold
GREB1 mRNA level, fold of the control ([7]; 12 h): 7.9 fold
GREB1 level of the control ([7]; 100 pM estrogen plus 6 μM compound, 24 h, normal medium): about 50%
IC50 ([8]; Homo sapiens, MCF7, MCF-7/HER2 cells, 72 h): 1000 ± 230 nM
sensitivity of MCF-7/HER2 cells compared with MCF-7 cells ([8]; paclitaxel 1×10^−3 μM to 10 μM, ATA 0.78 μM to 6.25 μM): higher sensitivity to ATA
CC50 [9]: 8.53 ± 0.2 µM
IC50 [9]: 2980 ± 370 nM
IC50 [10]: 6.64 µM
CC50 at 48 h [11]: 16.3 ± 4.46 µM
growth inhibition effect compared with TIIA [12]: stronger growth inhibition effect than TIIA
